According to the NIST ThermoML archive (doi:10.1016/j.tca.2014.05.033):
Values joined by “and” are separate entries in the source; they are usually repeats but may differ in a detail not shown here. Equal entries are not always repeated.

How the values were obtained:
[1] = Transpiration method
[2] = molar enthalpy of vaporization or sublimation; details: 298.15 K, DSC

c1ccc(-c2ccccc2-c2ccccc2)cc1 [o-terphenyl]
[1], Liquid
Details | vapor or sublimation pressure [kPa]
343.5 K | 0.00166
345.5 K | 0.00195
346.4 K | 0.0021
348.4 K | 0.0025
349.5 K | 0.0027
351.5 K | 0.00315
352.5 K | 0.00339
355.4 K | 0.00427
358.4 K | 0.00528
360.4 K | 0.0062
361.4 K | 0.00658
361.5 K | 0.00664
363.2 K | 0.00752
365.4 K | 0.00888
366.4 K | 0.00943
368.4 K | 0.01095
369.4 K | 0.01187
371.4 K | 0.01363
373.3 K | 0.01527
374.4 K | 0.01677
376.3 K | 0.01869
377.4 K | 0.02037

Details | molar enthalpy [kcal/mol]
[2], Crystal | 25.3

c1ccc2c(c1)ccc1ccccc12 [phenanthrene]
[1]
Details | vapor or sublimation pressure [kPa]
306.2 K, Crystal 2 | 5e-05
309.4 K, Crystal 2 | 7e-05
313.2 K, Crystal 2 | 0.00012
316.3 K, Crystal 2 | 0.00016
319.3 K, Crystal 2 | 0.00021
322.3 K, Crystal 2 | 0.00031
325.2 K, Crystal 2 | 0.00043
328.4 K, Crystal 2 | 0.00055
329.2 K, Crystal 2 | 0.00063
330.7 K, Crystal 2 | 0.00073
334.2 K, Crystal 2 | 0.00101
337.2 K, Crystal 2 | 0.00135
340.3 K, Crystal 2 | 0.00178
343.4 K, Crystal 2 | 0.00229
346.3 K, Crystal 2 | 0.00306
349.4 K, Crystal 1 | 0.00403
352.4 K, Crystal 1 | 0.00545
355.5 K, Crystal 1 | 0.00705
356.8 K, Crystal 1 | 0.0076
358.6 K, Crystal 1 | 0.00914
359.2 K, Crystal 1 | 0.00907
362.3 K, Crystal 1 | 0.01171
365.3 K, Crystal 1 | 0.01534
368.3 K, Crystal 1 | 0.01988
370.4 K, Crystal 1 | 0.02298

Details | molar enthalpy [kcal/mol]
[2], Crystal 2 | 22.1

c1ccc(-c2cccc3ccccc23)cc1 [1-phenylnaphthalene]
[1], Liquid
Details | vapor or sublimation pressure
318.5 K | 0.00026 kPa
323.5 K | 0.00038 kPa
328.3 K | 0.00062 kPa
328.4 K | 0.0006 kPa
333.4 K | 0.00092 kPa
338 K | 0.00136 kPa
343.6 K | 0.00209 kPa and 0.0021 kPa
351 K | 0.00376 kPa
353.1 K | 0.00462 kPa
358.3 K | 0.00644 kPa
358.5 K | 0.00687 kPa
363 K | 0.00953 kPa
368.3 K | 0.01352 kPa
371 K | 0.01665 kPa

Details | molar enthalpy [kcal/mol]
[2], Liquid | 19.8
